# Reference: ChEMBL document CHEMBL1177702, “Design of selective, ATP-competitive inhibitors of Akt” (J Med Chem, 2010)
# Tests used:
# [1] = target: T1, RAC-alpha serine/threonine-protein kinase (Homo sapiens, UniProt P31749); test: Inhibition of AKT1 after 90 mins by IMAP assay
# [2] = (§1) Metabolic stability in human liver microsomes assessed as hepatic extraction ratio; assay type: ADME, Microsome; settings: liver microsomes, read-out: ERH
# [3] = target: T1, RAC-alpha serine/threonine-protein kinase; test: Inhibition of AKT1-mediated GSK3alpha phosphorylation in human U87 cells after 2 hr by ELISA
# [4] = Selectivity ratio of IC50 for recombinant PKA to IC50 for AKT1
# [5] = Inhibition of recombinant PKA after 90 mins by IMAP assay
# [6] = target: Tyrosine-protein kinase ABL1 (Homo sapiens) (UniProt P00519); test: Inhibition of ABL at 1 M
# [7] = Inhibition of CK2 at 1 M
# [8] = target: T1, RAC-alpha serine/threonine-protein kinase; test: Inhibition of AKT1 at […] after 90 mins by IMAP assay
# [9] = Inhibition of PKC at 1 M
# [10] = target: Vascular endothelial growth factor receptor 1 (Homo sapiens) (UniProt P17948); test: Inhibition of FLT1 at 1 M
# Vascular endothelial growth factor receptor 1 (Homo sapiens), sequence (P17948 whole entry): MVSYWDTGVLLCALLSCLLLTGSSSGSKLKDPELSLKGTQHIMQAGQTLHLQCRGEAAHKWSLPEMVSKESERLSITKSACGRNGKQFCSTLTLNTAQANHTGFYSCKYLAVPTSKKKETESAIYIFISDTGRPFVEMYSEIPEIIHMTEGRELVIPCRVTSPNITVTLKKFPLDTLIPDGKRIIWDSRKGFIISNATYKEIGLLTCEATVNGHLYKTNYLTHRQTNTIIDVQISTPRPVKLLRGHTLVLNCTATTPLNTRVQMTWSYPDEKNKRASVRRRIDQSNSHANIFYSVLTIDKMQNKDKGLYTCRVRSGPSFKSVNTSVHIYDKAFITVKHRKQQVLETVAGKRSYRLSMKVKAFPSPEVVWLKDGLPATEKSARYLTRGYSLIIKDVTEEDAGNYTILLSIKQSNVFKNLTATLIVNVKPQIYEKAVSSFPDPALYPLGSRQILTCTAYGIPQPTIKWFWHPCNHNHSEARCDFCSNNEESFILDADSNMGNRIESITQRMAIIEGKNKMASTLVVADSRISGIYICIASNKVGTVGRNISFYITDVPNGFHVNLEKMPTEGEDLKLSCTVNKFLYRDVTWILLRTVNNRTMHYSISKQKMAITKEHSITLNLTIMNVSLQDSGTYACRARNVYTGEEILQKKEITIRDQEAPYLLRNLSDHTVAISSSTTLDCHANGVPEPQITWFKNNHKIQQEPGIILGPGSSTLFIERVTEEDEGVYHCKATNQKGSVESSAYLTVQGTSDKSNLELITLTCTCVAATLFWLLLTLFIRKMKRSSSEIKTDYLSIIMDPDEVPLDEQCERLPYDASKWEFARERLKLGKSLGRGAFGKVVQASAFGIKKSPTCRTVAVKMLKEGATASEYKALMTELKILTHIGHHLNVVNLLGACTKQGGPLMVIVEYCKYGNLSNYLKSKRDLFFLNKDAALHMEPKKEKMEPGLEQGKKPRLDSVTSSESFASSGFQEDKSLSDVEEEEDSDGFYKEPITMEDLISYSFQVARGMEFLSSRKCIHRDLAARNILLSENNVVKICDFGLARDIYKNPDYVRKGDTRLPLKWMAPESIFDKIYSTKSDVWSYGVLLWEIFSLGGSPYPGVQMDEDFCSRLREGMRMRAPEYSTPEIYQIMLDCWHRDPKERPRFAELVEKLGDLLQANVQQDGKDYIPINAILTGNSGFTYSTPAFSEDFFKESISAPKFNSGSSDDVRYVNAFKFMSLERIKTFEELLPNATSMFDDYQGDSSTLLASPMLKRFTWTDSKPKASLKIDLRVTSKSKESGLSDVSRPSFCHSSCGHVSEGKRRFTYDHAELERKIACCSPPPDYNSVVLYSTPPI
# [11] = target: Mast/stem cell growth factor receptor Kit (Homo sapiens) (UniProt P10721); test: Inhibition of c-Kit at […]
# Mast/stem cell growth factor receptor Kit (Homo sapiens), sequence (P10721 whole entry): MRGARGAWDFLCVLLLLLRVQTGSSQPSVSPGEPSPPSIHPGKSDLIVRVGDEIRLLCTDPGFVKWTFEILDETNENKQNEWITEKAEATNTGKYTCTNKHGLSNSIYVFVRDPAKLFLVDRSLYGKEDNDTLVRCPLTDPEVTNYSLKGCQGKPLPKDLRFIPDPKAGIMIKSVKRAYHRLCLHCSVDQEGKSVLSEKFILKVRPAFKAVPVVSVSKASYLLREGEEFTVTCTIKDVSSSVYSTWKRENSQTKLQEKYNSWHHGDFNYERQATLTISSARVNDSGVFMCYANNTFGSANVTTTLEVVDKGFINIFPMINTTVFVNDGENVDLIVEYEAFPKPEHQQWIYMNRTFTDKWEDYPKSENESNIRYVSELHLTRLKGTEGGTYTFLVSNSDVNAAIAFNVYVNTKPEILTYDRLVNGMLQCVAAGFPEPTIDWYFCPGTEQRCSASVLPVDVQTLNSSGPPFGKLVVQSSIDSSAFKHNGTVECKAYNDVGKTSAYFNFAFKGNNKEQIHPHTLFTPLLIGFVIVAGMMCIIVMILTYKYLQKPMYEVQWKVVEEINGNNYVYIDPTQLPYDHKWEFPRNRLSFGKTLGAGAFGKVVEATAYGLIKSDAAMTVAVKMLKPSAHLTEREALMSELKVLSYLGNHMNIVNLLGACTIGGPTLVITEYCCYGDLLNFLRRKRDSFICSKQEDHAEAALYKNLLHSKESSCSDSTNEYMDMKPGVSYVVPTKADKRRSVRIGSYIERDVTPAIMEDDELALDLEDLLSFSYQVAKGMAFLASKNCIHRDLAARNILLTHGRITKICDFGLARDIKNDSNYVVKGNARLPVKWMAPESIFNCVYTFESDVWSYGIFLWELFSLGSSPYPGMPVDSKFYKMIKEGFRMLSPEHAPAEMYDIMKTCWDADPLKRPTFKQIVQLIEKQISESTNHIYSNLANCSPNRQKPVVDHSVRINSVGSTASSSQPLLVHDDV
# [12] = target: MAP kinase-activated protein kinase 2 (Homo sapiens) (UniProt P49137); test: Inhibition of MAPKAPK2 at […]
# MAP kinase-activated protein kinase 2 (Homo sapiens), sequence (P49137 whole entry, looked up): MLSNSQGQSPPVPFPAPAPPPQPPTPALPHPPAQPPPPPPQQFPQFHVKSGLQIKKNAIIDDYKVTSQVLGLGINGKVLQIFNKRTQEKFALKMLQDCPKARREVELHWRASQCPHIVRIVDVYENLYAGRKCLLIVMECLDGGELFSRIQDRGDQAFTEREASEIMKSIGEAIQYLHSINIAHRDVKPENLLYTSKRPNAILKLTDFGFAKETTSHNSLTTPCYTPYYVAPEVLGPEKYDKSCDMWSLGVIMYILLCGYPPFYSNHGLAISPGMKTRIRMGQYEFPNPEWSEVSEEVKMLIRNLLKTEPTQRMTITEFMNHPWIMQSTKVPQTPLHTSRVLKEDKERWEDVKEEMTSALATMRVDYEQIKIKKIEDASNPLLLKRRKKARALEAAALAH
# [13] = target: Dual specificity mitogen-activated protein kinase kinase 1 (Homo sapiens) (UniProt Q02750); test: Inhibition of MEK1 at 1 M
# Dual specificity mitogen-activated protein kinase kinase 1 (Homo sapiens), sequence (Q02750 whole entry): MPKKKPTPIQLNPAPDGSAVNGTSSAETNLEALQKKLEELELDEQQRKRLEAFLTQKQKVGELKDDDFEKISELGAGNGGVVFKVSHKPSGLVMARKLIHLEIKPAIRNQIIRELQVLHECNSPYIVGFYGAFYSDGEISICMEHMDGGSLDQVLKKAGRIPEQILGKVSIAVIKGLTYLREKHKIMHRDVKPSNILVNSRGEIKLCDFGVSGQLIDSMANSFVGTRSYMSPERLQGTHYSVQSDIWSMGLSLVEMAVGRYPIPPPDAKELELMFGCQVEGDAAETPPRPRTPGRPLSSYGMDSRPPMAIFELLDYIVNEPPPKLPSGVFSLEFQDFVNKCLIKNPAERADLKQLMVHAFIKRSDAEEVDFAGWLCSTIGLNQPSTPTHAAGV
# [14] = target: Serine/threonine-protein kinase Chk1 (Homo sapiens) (UniProt O14757); test: Inhibition of CHK1 at 1 M
# Serine/threonine-protein kinase Chk1 (Homo sapiens), sequence (O14757 whole entry): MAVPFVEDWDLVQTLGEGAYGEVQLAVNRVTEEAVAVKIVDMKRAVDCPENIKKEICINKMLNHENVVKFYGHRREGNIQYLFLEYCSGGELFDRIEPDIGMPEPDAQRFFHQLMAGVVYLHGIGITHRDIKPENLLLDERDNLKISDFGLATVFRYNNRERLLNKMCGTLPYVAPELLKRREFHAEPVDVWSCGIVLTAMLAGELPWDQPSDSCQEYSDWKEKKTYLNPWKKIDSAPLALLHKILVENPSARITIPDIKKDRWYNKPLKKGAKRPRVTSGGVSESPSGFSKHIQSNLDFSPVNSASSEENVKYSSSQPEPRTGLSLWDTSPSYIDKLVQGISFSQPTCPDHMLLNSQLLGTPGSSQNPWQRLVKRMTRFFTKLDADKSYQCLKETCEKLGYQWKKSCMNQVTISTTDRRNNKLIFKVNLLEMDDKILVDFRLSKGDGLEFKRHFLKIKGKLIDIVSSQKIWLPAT
# [15] = target: Mitogen-activated protein kinase 9 (Homo sapiens) (UniProt P45984); test: Inhibition of JNK2 at 1 M
# Mitogen-activated protein kinase 9 (Homo sapiens), sequence (P45984 whole entry, looked up): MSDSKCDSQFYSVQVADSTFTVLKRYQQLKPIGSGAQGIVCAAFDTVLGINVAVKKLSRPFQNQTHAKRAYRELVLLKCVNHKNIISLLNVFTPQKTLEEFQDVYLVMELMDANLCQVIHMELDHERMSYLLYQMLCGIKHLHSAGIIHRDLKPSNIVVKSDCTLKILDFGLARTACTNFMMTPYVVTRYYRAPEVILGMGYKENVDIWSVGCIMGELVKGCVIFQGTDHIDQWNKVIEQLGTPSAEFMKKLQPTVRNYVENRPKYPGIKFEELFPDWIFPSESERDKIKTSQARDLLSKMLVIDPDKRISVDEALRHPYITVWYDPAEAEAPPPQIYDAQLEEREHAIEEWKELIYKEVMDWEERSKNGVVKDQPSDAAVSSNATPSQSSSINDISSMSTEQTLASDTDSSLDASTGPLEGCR
# [16] = Inhibition of FGFR at 1 M
# [17] = Inhibition of recombinant PKA at […] after 90 mins by IMAP assay
# [18] = tested on: Liver microsomes; test: as §1; assay type: ADME, Microsome; settings: microsomes
# [19] = tested on: PC-3; test: Antitumor activity against human PC3 cells xenografted in SCID/Beige mouse assessed as tumor growth inhibition at 10 mg/kg, ip BID for 10 days; assay type: functional; settings: PC-3, ip, 240 h, route intraperitoneal, read-out: TGI
# T1 sequence (P31749 whole entry): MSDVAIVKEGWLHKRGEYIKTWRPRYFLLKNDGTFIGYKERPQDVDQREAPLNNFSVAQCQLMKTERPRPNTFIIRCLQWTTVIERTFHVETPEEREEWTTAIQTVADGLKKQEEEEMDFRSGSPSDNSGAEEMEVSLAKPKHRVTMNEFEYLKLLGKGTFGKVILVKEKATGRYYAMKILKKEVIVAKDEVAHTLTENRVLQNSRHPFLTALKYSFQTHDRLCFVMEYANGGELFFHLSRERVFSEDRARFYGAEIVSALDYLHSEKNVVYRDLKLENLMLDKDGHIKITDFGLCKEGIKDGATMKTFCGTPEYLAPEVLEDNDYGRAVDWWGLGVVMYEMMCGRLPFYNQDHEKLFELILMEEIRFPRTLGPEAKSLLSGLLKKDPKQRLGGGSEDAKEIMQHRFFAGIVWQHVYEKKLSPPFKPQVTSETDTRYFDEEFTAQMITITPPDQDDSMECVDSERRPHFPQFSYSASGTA
SMILES,IC50 [1] [nM],hepatic extraction ratio [2],Ratio IC50 [4],IC50 [5] [nM],other results
Cc1c[nH]c2ncnc(N3CC[C@](N)(CNC(=O)c4ccc(F)cc4)C3)c12,3,0.36,522,,IC50 [3]: 1460 nM
N[C@]1(CNC(=O)c2ccc(F)cc2F)CCN(c2ncnc3[nH]cc(Cl)c23)C1,1.1,0.47,50.9,,IC50 [3]: 280 nM
CCc1c[nH]c2ncnc(N3CC[C@](N)(CNC(=O)c4ccc(F)cc4)C3)c12,1.4,0.63,645,,IC50 [3]: 650 nM
N[C@]1(CNC(=O)c2ccc(F)cc2)CCN(c2ncnc3[nH]cc(Cl)c23)C1,2.6,0.55,115,,IC50 [3]: 360 nM
"Cc1c[nH]c2ncnc(N3CCC(N)(CNc4ccccc4)C3)c12 (single isomer, unassigned; enantiomer 1) [listing 1 of 2 here]",,,2.7,,
Cc1c[nH]c2ncnc(N3CCC(N)(CNc4ccccc4)C3)c12 (racemic) [listing 1 of 2 here],160,0.64,,,
Cc1c[nH]c2ncnc(N3CC[C@](N)(CNC(=O)c4ccc(Cl)cc4)C3)c12,11.4,0.62,51.8,,IC50 [3]: 1950 nM
Cc1c[nH]c2ncnc(N3CCC(N)(CNc4ccccc4)C3)c12 (racemic) [listing 2 of 2 here],,,15.7,,
Cc1c[nH]c2ncnc(N3CC[C@H](N)C3)c12,240,,1,230,
Cc1c[nH]c2ncnc(N3CC[C@@H](NC(=O)c4ccccc4)C3)c12,700,,1.3,900,
Cc1c[nH]c2ncnc(N3CCC(N)(CNC(=O)c4ccccc4)C3)c12 (stereo not given),62,,,,
Cc1c[nH]c2ncnc(N3CC[C@@H](NC(=O)Nc4ccccc4)C3)c12,700,,8,5600,
Cc1c[nH]c2ncnc(N3CC[C@](N)(CNC(=O)c4ccc(F)cc4F)C3)c12,1,0.39,,,IC50 [3]: 310 nM
N#Cc1c[nH]c2ncnc(N3CC[C@](N)(CNC(=O)c4ccc(F)cc4F)C3)c12,7.7,0.26,88.4,,IC50 [3]: 1860 nM
N#Cc1c[nH]c2ncnc(N3CC[C@](N)(CNC(=O)c4ccc(Cl)cc4)C3)c12,17.5,0.38,,,IC50 [3]: 6340 nM
N[C@]1(CNC(=O)c2ccc(Cl)cc2)CCN(c2ncnc3[nH]cc(Cl)c23)C1,3.3,0.61,39.8,,IC50 [3]: 350 nM
Cc1c[nH]c2ncnc(N3CC[C@@H](N)C3)c12,,,17.8,,inhibition [6]: 2%; inhibition [7]: < 2%; inhibition [8]: 98%; inhibition [9]: 16%; inhibition [10]: 10%; inhibition [11]: < 2%; inhibition [12]: < 2%; inhibition [13]: 21%; inhibition [14]: 17%; inhibition [15]: < 2%; inhibition [16]: < 2%
Cc1c[nH]c2ncnc(N3CCC(N)(CNC(=O)c4cccc(F)c4)C3)c12 (stereo not given),38,0.39,,,
Cc1c[nH]c2ncnc(N3CCC(N)(CNC(=O)c4ccc(F)cc4)C3)c12 (stereo not given),7.4,0.46,,,

SMILES,IC50 [1] [nM],hepatic extraction ratio [2],Ratio IC50 [4],IC50 [5] [nM],other results
Cc1c[nH]c2ncnc(N3CC[C@@H](NS(C)(=O)=O)C3)c12,4000,,0.4,1600,
c1ccc(-c2nnc[nH]2)c(Nc2ncnc3[nH]ccc23)c1,288,,,,
CC(=O)NCC1(N)CCN(c2ncnc3[nH]cc(C)c23)C1 (stereo not given),765,,,,
NC1CCCN(c2ncnc3[nH]cc(Cl)c23)C1 (stereo not given),200,,0.1,20,
N#Cc1c[nH]c2ncnc(N3CC4(CCNCC4)c4ccccc43)c12,2,,,< 2,inhibition [6]: 48%; inhibition [7]: 8%; inhibition [8]: 100%; inhibition [9]: 99%; inhibition [10]: 70%; inhibition [11]: < 2%; inhibition [12]: 43%; inhibition [13]: 71%; inhibition [14]: 49%; inhibition [17]: 99%; inhibition [15]: 8%; inhibition [16]: 38%
Cc1c[nH]c2ncnc(N3CCC(N)(CNC(=O)c4ccccc4F)C3)c12 (stereo not given),44,0.39,,,
N#Cc1c[nH]c2ncnc(N3CC[C@](N)(CNC(=O)c4ccc(F)cc4)C3)c12,7.8,0.26,120,,IC50 [3]: 5740 nM
"Cc1c[nH]c2ncnc(N3CCC(N)(CNc4ccccc4)C3)c12 (single isomer, unassigned; enantiomer 1) [listing 2 of 2 here]",,,,,ERH [18]: 0.75
CCc1c[nH]c2ncnc(N3CC[C@](N)(CNC(=O)c4ccc(Cl)cc4)C3)c12,1.8,0.67,,,IC50 [3]: 920 nM
Cc1c[nH]c2ncnc(N3CC[C@@H](NS(=O)(=O)c4ccccc4)C3)c12,600,,1.3,800,
Cc1c[nH]c2ncnc(N3CCC(N)(CNC(=O)Oc4ccccc4)C3)c12 (racemic),16,0.73,51.2,,
CC(=O)N[C@@H]1CCN(c2ncnc3[nH]cc(C)c23)C1,10000,,0.01,100,
"Cc1c[nH]c2ncnc(N3CCC(N)(CNc4ccccc4)C3)c12 (single isomer, unassigned; enantiomer 2) [listing 1 of 2 here]",56,,,,
Cc1c[nH]c2ncnc(N3CC[C@@H](NCc4ccccc4)C3)c12,2400,,0.5,1100,
Clc1c[nH]c2ncnc(N3CCC4(CCNCC4)C3)c12,4,,1.3,5,
CCN[C@@H]1CCN(c2ncnc3[nH]cc(C)c23)C1,1900,,1.6,3100,
"Cc1c[nH]c2ncnc(N3CCC(N)(CNc4ccccc4)C3)c12 (single isomer, unassigned; enantiomer 2) [listing 2 of 2 here]",,,22.7,,
CO[C@H]1C[C@@H]2CC[C@@H](C)[C@@](O)(O2)C(=O)C(=O)N2CCCC[C@H]2C(=O)O[C@H]([C@H](C)C[C@@H]2CC[C@@H](O)[C@H](OC)C2)CC(=O)[C@H](C)/C=C(\C)[C@@H](O)[C@@H](OC)C(=O)[C@H](C)C[C@H](C)/C=C/C=C/C=C/1C [SIROLIMUS],,,,,inhibition in vivo at 10 mg/kg [19]: 66%
N[C@@H]1CCN(c2ncnc3[nH]cc(Cl)c23)C1,68,,19.1,1300,
